Experimental data published in US12134604B1, “1-[4,5-bis(4-chlorophenyl)-1-hexyl-1H-imidazol-2-yl]-2-naphthol as an antimicrobial compound” (KING FAISAL UNIVERSITY, priority 2023, dated 2024).

How the values were obtained:
Assay type in all cases: cell-based
Settings in all cases: after 10, 20, 40 and 60 minutes at all dilutions 1:100, 1:200, 1:400, 1:800 (summary in words)
Staphylococcus aureus = experiment: Antimicrobial screening by agar dilution, Staphylococcus aureus
Protocol: (§1) The antimicrobial properties of the 1-[4,5-bis(4-chlorophenyl)-1-hexyl-1H-imidazol-2-yl]-2-naphthol was studied by the method of agar dilution. Test solutions of each compound was prepared in concentration of 1% using dimethylformamide as a solvent then they are diluted in physiological solution to obtain the final experimental dilutions 1:100, 1:200, 1:400, 1:800. The effect of these substances are compared with furacillin in a controlled study. The testing microbes used were gram positive bacteria Staphylococcus aureus, gram negative bacteria Pseudomonas aeruginosa and Escherichia coli and Candida albicans fungi were taken. The experiments used for this survey were meat-pentonlu agar (EPA) for cultivation of bacteria and Saburo environment for fungi. Each experiment used 1 ml of test solution on each plate 500 min. Add 2 drops of emulsified with microbes feel. All experimental samples were taken from the agar after 10, 20, 40, 60 minutes in the environment on the basis of Patrk planted. Bacteria were cultivated at a temperature of 37° C. for 1 day and the mushroom was kept in a thermostat for […] at a temperature of 28° C. in the. Then results were checked.

Escherichia coli = experiment: Antimicrobial screening by agar dilution, Escherichia coli
Protocol: as §1

Pseudomonas aeruginosa = experiment: Antimicrobial screening by agar dilution, Pseudomonas aeruginosa
Protocol: as §1

Candida albicans = experiment: Antimicrobial (antifungal) screening by agar dilution, Candida albicans
Protocol: as §1

Measured: inhibition activity

CCCCCCn1c(-c2c(O)ccc3ccccc23)nc(-c2ccc(Cl)cc2)c1-c1ccc(Cl)cc1 [1-[4,5-bis(4-chlorophenyl)-1-hexyl-1H-imidazol-2-yl]-2-naphthol]
highest inhibition activity: all assays above
